Values joined by “and” are separate entries in the source; they are usually repeats but may differ in a detail not shown here. Equal entries are not always repeated. Where two headings read alike, the source gives them in different places. Peptide text beside a SMILES is read from it.
Key:
neonatal rat pups = type: in vivo; conditions: for weight gain: P3-P10
Description: Data from lung sections and immunoblots from the samples were analyzed for statistical differences using GraphPad Prism version 8.4.3, for Windows (GraphPad Software, La Jolla, Calif.). Quantitative morphometric and cell count data are expressed as mean±SD scatter-plots adjacent to the representative images. Student t-test, or Mann-Whitney U test, was used for comparing two groups wherever appropriate. One-way analysis of variance with post-hoc Student-Newman-Keuls test was used when more than two groups of data were analyzed. Significant differences between groups were determined by either unpaired student's t-test or Mann-Whitney U test, depending on the distribution. Weight gain and survival data were analyzed using MedCalc Statistical Software version 15.2.1 (MedCalc Software bvba, Ostend, Belgium; http://www.medcalc.org). Kaplan-Meier survival curves were plotted using Kaplan-Meier tables constructed in GraphPad Prism. A p-value<0.05 was considered statistically significant.

[1] = system: lung lysates of neonatal rat pups; assay: Hyperoxia-induced BPD in neonatal rat pups: immunoblot, affinity blot and pulldown analysis of lung lysates; conditions: for Nrf2 activation: lung lysates
Description: The dose of KYC (5 mg/kg twice per day) was chosen based on experience treating chronic inflammation in other disease states (58, 60, 61). […] Equal volumes of PBS were injected i.p. into the remaining half of the pups as an injection control. Pups were euthanized on P10 with carbon dioxide and lungs removed en bloc. A small cut was created on the left atrium and ice-cold normal saline was gently infused through the right ventricle to flush blood from the lungs before inflation for histology or snap-frozen in liquid nitrogen for protein studies. Pups from at least three litters were used in each experiment.
Immunoblot Analysis: Whole lung lysates were obtained by homogenizing in MOPS buffer (20 mM 3-N-morpholino-propanesulfonic acid, 2 mM EGTA, 5 mM EDTA, 30 mM NaF, 10 mM β-glycerophosphate, 10 mM Na pyrophosphate, 2 mM Na orthovanadate, 1 mM PMSF, 0.5% NP-40, 1% protease inhibitor cocktail, and 1% phosphatase inhibitor cocktails 2 and 3, pH 7.0) by Bullet Blender (Next Advance, Inc., Averill Park, N.Y.). For protein immunoblots, 30 μg of protein lysate was separated by SDS-PAGE, transferred to nitrocellulose membranes (0.22 μm), and then probed with the appropriate primary antibodies overnight at 4° C. on a continuously rocking platform. Signals were generated after incubation with horseradish peroxidase-conjugated goat anti-rabbit or anti-mouse IgG (1:8,000) using Western Bright ECL Chemiluminescent HRP Substrate (Advansta Inc., Menlo Park, Calif.). Integrated optical density (IOD) was calculated using ImageJ software and normalized to β-actin, a loading control.

[2] = normoxic pups, KYC vs untreated
[3] = hyperoxic lungs, KYC vs PBS, P10
[4] = hyperoxic pups treated with KYC, P10, PBS 1.0±0.2
[5] = hyperoxic pups, KYC vs PBS, P10
[6] = lungs of hyperoxic pups, KYC vs PBS

SMILES: CC(=O)N[C@@H](CCCCN)C(=O)N[C@@H](Cc1ccc(O)cc1)C(=O)N[C@@H](CS)C(N)=O [KYC, N-acetyl lysyltyrosylcysteine amide] (Ac-Lys-Tyr-Cys-NH2)
- survival rate at P10 (neonatal rat pups; hyperoxic (>90% O2) neonatal rat pups, KYC 5 mg/kg twice per day i.p., PBS group 82.8%): 97.3% and ~98%
- survival to P10 (survival analysis) (neonatal rat pups; hyperoxic pups, KYC vs PBS): higher probability of surviving to P10
- weight gain (neonatal rat pups; hyperoxic pups, KYC vs PBS): time-dependent changes in weight gain were not significantly different
- survival to P10 (neonatal rat pups; [2]): no significant differences in survival
- weight gain (neonatal rat pups; [2]): gained more weight than untreated normoxic pups
- CD31 levels (immunoblot, relative) ([1]; KYC-treated HOX group, P10, PBS-treated HOX 1.0±0.1): 1.2±0.3
- Nrf2 levels (FIG. 22) ([1]; hyperoxia exposed rat pup lungs): decreased Nrf2 levels
- NO2-Tyr levels (immunoblot, relative) ([1]; hyperoxia pups, KYC 5 mg/kg twice per day i.p., P10, PBS 1.0±0.1): 0.6±0.2
- MPO levels (immunoblot, relative) ([1]; hyperoxia pups, KYC 5 mg/kg twice per day i.p., P10, PBS 1.0±0.3): 0.6±0.1
- cell death in lungs (FIG. 20) ([1]; hyperoxia-exposed rat pup lungs): reduces cell death
- reduction of Cl-Tyr formation [1, 3]: approximately 27%
- reduction of MPO protein [1, 3]: approximately 50%
- reduction of NO2-Tyr [1, 3]: approximately 32%
- TLR4 expression in lungs (immunoblot, relative) ([1]; hyperoxic pups treated with KYC, P10, PBS 1.0±0.1): 0.8±0.2
- HMGB1 levels in lungs (immunoblot, relative) [1, 4]: 0.6±0.2
- RAGE expression in lungs (immunoblot, relative) [1, 4]: 0.5±0.2
- HMGB1 isoform in lung lysates (non-acetylated vs lysyl-acetylated) ([1]; hyperoxic pups, KYC vs PBS): shifted the HMGB1 in lung lysates from the non-acetylated (HMGB1) to the lysyl-acetylated (Ac-HMGB1) isoform
- reduction of pulmonary Cox1 ([1]; hyperoxic pups, KYC vs PBS): 20-30%
- reduction of pulmonary Cox2 ([1]; hyperoxic pups, KYC vs PBS): 60-70%
- decrease of HMGB1 levels in lung homogenates/lysates [1, 5]: approximately 38%
- increase of CD31 (endothelial cells) [1, 5]: approximately 23%
- reduction of RAGE expression [1, 5]: 60%
- sulfonyl HMGB1 levels ([1]; hyperoxic pups, relative to PBS-treated): increased sulfonyl HMGB1 levels
- S-glutathionylation of Keap1 ([1]; lung lysates from hyperoxic pups): increased
- HMGB1 association with TLR4 (HMGB1 pulldown) ([1]; lung lysates from hyperoxic pups, KYC vs PBS): decreased HMGB1 association with TLR4
- B-KYC thiylation of Keap1 ([1]; lung lysates from hyperoxic pups, KYC P2-P9 then once B-KYC 5 mg/kg): increased B-KYC thiylation of Keap1
- Nrf2 activation ([1]; hyperoxic pups): increased Nrf2 activation in lung lysates from hyperoxic pups
- Nrf2 activation ([1]; normoxic pups): increased Nrf2 activation in lung lysates
- GST expression [1, 6]: increased
- HMGB1 association with RAGE (HMGB1 pulldown) [1, 6]: reduced
- HO-1 expression [1, 6]: increased
- Trx expression [1, 6]: increased

From patent publication US20220409692A1, “Systems Chemico-Pharmacology Drugs and Methods of Use” (The Medical College of Wisconsin, priority 2019, published 2022)
